# Reference: patent EP2902035B1, “Cell-permeable peptide inhibitors of the JNK signal transduction pathway for use in the treatment of inflammatory eye diseases” (Xigen Inflammation Ltd., priority 2010, dated 2012)
# Tests used:
# Format in all cases: in vivo, Lewis rats
# [1] = Ocular biodistribution by immunohistochemistry against SEQ ID NO: 11
# Experimental: For immunohistochemistry, eyeballs were collected and fixed for 1h at room temperature in phosphate buffered saline (PBS) containing 4% paraformaldehyde before being rinsed overnight in PBS. The next day, samples were embedded and frozen in optimal cutting-temperature (OCT) compound (Tissue-Tek®, Sakura Finetek, Zoeterwoude, Netherland) and stored at -80°C. Frozen antero-posterior sections of eyes (10 µm thick) were performed at the optic nerve level using a cryostat (Leica CM 3050S, Rueil-Malmaison, France) and mounted on super-frost slides for immunohistochemical analysis.
# A second set of experiment was designed to evaluate the anti-inflammatory effect of the JNK-inhibitor (poly-)peptide of SEQ ID NO: 11 at the cellular and tissue level as well as the biodistribution of this molecule 24 hours after administration. Rats were randomized into 11 experimental groups. 6 groups of rats with uveitis: untreated uveitic rats, rats injected intravenously with NaCl or the JNK-inhibitor (poly-)peptide of SEQ ID NO: 11 and rats injected intravitreously with the vehicle, the JNK-inhibitor (poly-)peptide of SEQ ID NO: 11 or dexamethasone. The 5 additional groups without uveitis were: untreated healthy rats, rats treated by NaCl IV or the JNK-inhibitor (poly-)peptide of SEQ ID NO: 11 IV and rats injected IVT with NaCl or the JNK-inhibitor (poly-)peptide of SEQ ID NO: 11. Three eyes from separate rats were collected per group and used for immunohistochemistry.
# Immunostaining of the JNK-inhibitor (poly-)peptide of SEQ ID NO: 11 was performed on healthy and uveitic eyes to study its ocular biodistribution after systemic or local administration. Briefly, sections were permeabilized as described above before being sequentially incubated with an anti- SEQ ID NO: 11 purified rabbit IgG and a secondary Alexa 594 (red)-conjugated goat anti-rabbit IgG (Invitrogen, Cergy Pontoise, France) diluted 1:100 and 1:250 in PBS respectively. Immunostaining of untreated healthy and uveitic eyes were used as negative controls. Nuclei were stained with DAPI before mounting and observation.
# [2] = system: intraocular LPS-induced Chemokine/Cytokine profiles; experiment: Chemokine/Cytokine Multiplex Assay on ocular fluids in EIU
# Experimental: (§1) Aqueous humor and vitreous were collected and pooled from each enucleated eye. Ocular fluids were immediately centrifuged and the cell-free fractions were collected and frozen at -20°C before analysis by Multiplex assay. Blood samples were first clotted at room temperature for 2 hours and then at 4°C overnight. Serum was collected, centrifuged and the clear supernatant was collected and frozen at -20°C before Multiplex analysis.
# (§2) In a first set of experiment, 70 rats were randomized into 14 experimental groups with 5 rats per group. Uveitis was induced in each group and rats were killed 6 hours (4 groups), 24 hours (6 groups) and 48 hours (4 groups) after LPS challenge. For each time point tested (i.e. 6h, 24h and 48h), rats treated by intravenous or intravitreous injections of vehicle (NaCl 0.9%) or the JNK-inhibitor (poly-)peptide of SEQ ID NO: 11 were compared to untreated control uveitic rats. Two additional groups, treated by intravenous injection of vehicle and intravitreal injection of dexamethasone were used at 24 hours. Clinical ocular inflammation was recorded only at 24 hours (see Scoring of Endotoxin-Induced Uveitis (EIU) section). At each time point, intraocular fluids from each eye (n=10 per group) and serum from each animal (n=5 per group) were used for Chemokine/Cytokine Multiplex Assay.
# Intraocular fluids (diluted to obtain a final volume of 25 µL) and sera (25 µL of 1:5 dilution) were subjected to multiplex bead analysis. This method uses microspheres as the solid support for immunoassays 12 and allows the titration of a greater number of cytokines with increased sensitivity than occurs with ELISA.13 For each sample, seventeen analytes were quantified simultaneously using the rat Cytokine/Chemokine-17plex kit (Milliplex Map Kit, Millipore, Saint-Quentin-en-Yvelines, France) according to the manufacturer's instructions: Chemokines MCP-1/CCL2, MIP-1α/CCL3, RANTES/CCL5, IP-10/CXCL10 (IFN-inducible protein-10) and GRO/KC; proinflammatory mediators IL-1, IL-18 and TNF-; Th1/Th2/Th17 cytokines IL-2 and IFN- / IL-4, IL-5, IL-6, IL-10 and IL-13 / IL-17. The assay was performed in a 96-well filter plate and standard curves for each cytokine were generated with a Rat Cytokine Standard provided in the kit. All incubation steps were performed under medium orbital agitation and in the dark to protect the beads from light. Data acquisition and analysis were performed with the manager software version 4.1 (Bioplex; Bio-Rad) with four or five logistic parameters for standard curves. Detection thresholds for all the analytes were estimated around 1 to 10 pg/mL.
# [3] = system: chemokines/ cytokines in the serum; experiment: Chemokine/Cytokine Multiplex Assay on serum in EIU; conditions: tendency, not statistically significant
# Experimental: as §1, §2
# Intraocular fluids (diluted to obtain a final volume of 25 µL) and sera (25 µL of 1:5 dilution) were subjected to multiplex bead analysis. This method uses microspheres as the solid support for immunoassays 12 and allows the titration of a greater number of cytokines with increased sensitivity than occurs with ELISA.13 For each sample, seventeen analytes were quantified simultaneously using the rat Cytokine/Chemokine-17plex kit (Milliplex Map Kit, Millipore, Saint-Quentin-en-Yvelines, France) according to the manufacturer's instructions: Chemokines MCP-1/CCL2, MIP-1α/CCL3, RANTES/CCL5, IP-10/CXCL10 (IFN-inducible protein-10) and GRO/KC; proinflammatory mediators IL-1, IL-18 and TNF-; Th1/Th2/Th17 cytokines IL-2 and IFN- / IL-4, IL-5, IL-6, IL-10 and IL-13 / IL-17. […]
# [4] = ocular fluids, IV at the time of LPS challenge, at 6 and 24 hours
# [5] = ocular fluids, IV, at different time points
# [6] = ocular fluids, IVT, at 24 hours
# [7] = treated versus untreated eyes, any of the tested time points
compound,measurement,setting,value
CC(C)C[C@@H](NC(=O)[C@@H](Cc1ccccc1)NC(=O)[C@H]1CCCN1C(=O)[C@@H](CCC(N)=O)NC(=O)[C@H](NC(=O)[C@H]1CCCN1C(=O)[C@@H](CCCNC(=N)N)NC(=O)[C@@H](CO)NC(=O)[C@@H](CCC(N)=O)NC(=O)[C@H](N)CC(=O)O)C(C)C)C(=O)N[C@H](CC(N)=O)C(=O)N[C@H](CC(C)C)C(=O)N[C@@H](C(=O)N[C@@H](C(=O)N1CCC[C@@H]1C(=O)N[C@H](CCCNC(=N)N)C(=O)N[C@H](CCCCN)C(=O)N1CCC[C@@H]1C(=O)N[C@H](CCCNC(=N)N)C(=O)N1CCC[C@@H]1C(=O)N1CCC[C@@H]1C(=O)N[C@H](CCCNC(=N)N)C(=O)N[C@H](CCCNC(=N)N)C(=O)N[C@H](CCCNC(=N)N)C(=O)N[C@H](CCC(N)=O)C(=O)N[C@H](CCCNC(=N)N)C(=O)N[C@H](CCCNC(=N)N)C(=O)N[C@H](CCCCN)C(=O)N[C@H](CCCCN)C(=O)N[C@H](CCCNC(=N)N)C(=O)NCC(=O)O)[C@H](C)O)[C@H](C)O [SEQ ID NO: 11],detection of the peptide in ocular tissues,"[1]; EIU eyes, 24 hours after IV injection",not detected
same,"detection of the peptide in infiltrating inflammatory cells (iris, aqueous humor)","[1]; EIU eyes, 24 hours after IV injection, occasional cells",immunopositive
same,subcellular localisation of the peptide,"[1]; all cell types, normal eyes after IVT administration",accumulated within the cytoplasm
same,immunoreactivity of the peptide in ocular tissues,"[1]; normal eyes, 24 hours after systemic (IV) injection, 20 µg/kg",no signal was observed
same,distribution of the peptide in ocular tissues,"[1]; normal rats, 24 hours after IVT administration, 0.2 µg/injection",distributed in almost all ocular tissues
same,distribution of the peptide in ocular tissues and resident cells,"[1]; uveitic eyes, 24 hours after IVT injection",mostly found in ocular tissues like in healthy eyes and in resident cells
same,MCP-1,[2]; [4],significant reduction
same,MIP-1α,[2]; [4],significant reduction
same,RANTES,[2]; [4],significant reduction
same,GRO/KC,"[2]; ocular fluids, IV, at 6 hours",significantly reduced
same,IL-10,"[2]; ocular fluids, IV, at 6 hours, not significantly",tended to increase
same,IL-6,[2]; [5],significantly reduced
same,INF-γ,[2]; [5],significantly reduced
same,TNF-α,[2]; [5],significantly reduced
same,IL-2,"[2]; ocular fluids, IVT, at 6 hours",trend to a decrease
same,IL-6,"[2]; ocular fluids, IVT, at 6 hours",trend to a decrease
same,MCP-1,"[2]; ocular fluids, IVT, at 6 hours",trend to a decrease
same,TNF-α,"[2]; ocular fluids, IVT, at 6 hours",trend to a decrease
same,IL-2,[2]; [6],marked decrease
same,IL-13,[2]; [6],increase
same,chemokine/ cytokine profiles,"[2]; ocular fluids, injected into the vitreous at the time of LPS challenge, versus vehicle",not strikingly different
same,IL-1β,[2]; [7],did not differ
same,IL-4,[2]; [7],did not differ
same,IL-18,[2]; [7],did not differ
same,IL-2,[3]; after IV administration,reduction
same,MIP-1α,[3]; after IV administration,reduction
same,IL-2,[3]; after IVT,reduction
